Measured values published in US20150072888A1, “Biomarkers For Diagnosis Of Diabetes And Monitoring Of Anti-Diabetic Therapy” (Sumitomo Bakelite Co., Ltd., priority 2012, published 2015).

Key:
db/db mice [1] = experiment: Plasma N-glycan profile of db/db mice treated with insulin detemir; format: in vivo, mouse; settings: for Direction of change of hybrid glycan 430010 / Direction of change of hybrid glycan 530010 / Direction of change of hybrid glycan 630010: days 7, 14, 21, significant as early as Day 7; for Direction of change of high mannose glycan 520000 (Man5GlcNAc2) / Direction of change of high mannose glycan 620000 (Man6GlcNAc2) / Direction of change of high mannose glycan 720000 (Man7GlcNAc2) / Direction of change of high mannose glycan 820000 (Man8GlcNAc2): significant at Day 7, 14 and 21
Method: A 10 μl aliquot of each plasma sample was spiked with internal standard (700 pmol) and analyzed for N-linked glycans using Ezose Sciences' GLYCANMAP methodology. The samples were denatured and then digested with trypsin, followed by heat-inactivation. The mixture was then treated with PNGase F. After enzymatic release of N-glycans, aliquots were subjected to solid-phase processing using BLOTGLYCO beads. Following capture on the beads, the sialic acid residues were methyl esterified. The glycans were simultaneously released from the beads and labeled, and then aliquots of the recovered materials were spotted onto a MALDI target plate. Steps from initial aliquoting to spotting on the MALDI plate were performed using the fully automated SWEETBLOT technology. MALDI-TOF MS analysis was performed on an ultraflex III mass spectrometer (Bruker Daltonics) in the positive-ion, reflector mode. Each sample from the BLOTGLYCO bead processing step was spotted in quadruplicate, and spectra were obtained in an automated manner using the AutoXecute feature in flexControl software (Bruker Daltonics). Proposed glycan structures were assigned based on molecular weight. These methods have been described previously by Nishimura, Furukawa and Miura (Nishimura et al., Angew Chem. Int. Ed. Engl., 44: 91-96 (2004); Furukawa et al., Anal. Chem., 80: 1094-1101 (2008); Miura et al., Chem.-A Eur. J, 13: 4797-4804 (2007)). Alternatively, standard fluorescent HPLC or capillary electrophoresis methods with 2-AA, 2-AB, or APTS labeling can be used to monitor the glycan levels and changes in glycan patterns.
A further study was undertaken to evaluate the performance of candidate biomarkers discovered using rosiglitazone in mice treated with a diabetes drug having a different mechanism of action. The candidate biomarkers that were identified in Example 1 were evaluated in db/db mice treated with insulin detemir and vehicle.
Plasma samples were analyzed from ten db/db mice at baseline (0 days) and from 20 db/db mice (ten vehicle and ten insulin detemir-treated) at 7, 14, and 21 days. Sample preparation and analysis followed the protocol described in Example 1.
Concentrations of individual glycans in insulin detemir- and vehicle-treated db/db mice were compared at each time-point using the Student's t-test. N-glycans which yielded p-values<0.05 in this analysis were considered significant. Time-dependence was also evaluated for each of the candidate biomarkers by comparing each time-point to baseline.

db/db mice [2] = experiment: Plasma N-glycan profile (GLYCANMAP, MALDI-TOF MS) of db/db mice treated with rosiglitazone, initial study (Table 1 summarises both rosiglitazone studies); format: in vivo, mouse; settings: first rosiglitazone study, db/db mice vs vehicle
Method: A 10 μl aliquot of each plasma sample was spiked with internal standard (700 pmol) and analyzed for N-linked glycans using Ezose Sciences' GLYCANMAP methodology. The samples were denatured and then digested with trypsin, followed by heat-inactivation. The mixture was then treated with PNGase F. After enzymatic release of N-glycans, aliquots were subjected to solid-phase processing using BLOTGLYCO beads. Following capture on the beads, the sialic acid residues were methyl esterified. The glycans were simultaneously released from the beads and labeled, and then aliquots of the recovered materials were spotted onto a MALDI target plate. […]
Rosigilitazone is a member of the athiazolidinedione class of anti-diabetic drugs, and is marketed by Glaxo under the trade name AVANDIA. […] A baseline (Day 0) sample was not analyzed in the initial rosiglitazone study, but was included in a subsequent rosiglitazone confirmatory study. […]
Several criteria were used in the initial rosiglitazone study to select the most promising biomarkers. Statistical significance was evaluated based on the Mann-Whitney test or Student's t-test and changes considered significant if the resulting p-value was less than 0.05. […] After the confirmatory rosiglitazone study, one glycan (530010) that had been excluded in the initial study was re-evaluated. […]

[3] = db/db mice plasma vs vehicle, listed as Insulin Detemir

Molecule | Changes in HbA1c compared with rosiglitazone (db/db mice [1]; db/db mice) | Magnitude of changes in high-mannose glycans compared with rosiglitazone (db/db mice [1]; db/db mice plasma) | Changes in Glycan 540020 (db/db mice [1]; db/db mice plasma vs vehicle) | Changes in O-acetylated N-glycans (db/db mice [1]; db/db mice plasma vs vehicle) | Changes in fucosylated N-glycans (db/db mice [1]; db/db mice plasma vs vehicle) | Direction of change of hybrid glycan 430010 (db/db mice [1]; db/db mice plasma vs vehicle) | Direction of change of hybrid glycan 530010 (db/db mice [1]; db/db mice plasma vs vehicle) | Direction of change of hybrid glycan 630010 (db/db mice [1]; db/db mice plasma vs vehicle) | Direction of change of hybrid glycan 430010 (db/db mice [1]; [3]) | Direction of change of hybrid glycan 530010 (db/db mice [1]; [3]) | Direction of change of hybrid glycan 630010 (db/db mice [1]; [3]) | Direction of change of high mannose glycan 520000 (Man5GlcNAc2) (db/db mice [1]; db/db mice plasma vs vehicle) | Direction of change of high mannose glycan 620000 (Man6GlcNAc2) (db/db mice [1]; db/db mice plasma vs vehicle) | Direction of change of high mannose glycan 720000 (Man7GlcNAc2) (db/db mice [1]; db/db mice plasma vs vehicle) | Direction of change of high mannose glycan 820000 (Man8GlcNAc2) (db/db mice [1]; db/db mice plasma vs vehicle) | Direction of change of high mannose glycan 520000 (Man5GlcNAc2) (db/db mice [1]; [3]) | Direction of change of high mannose glycan 620000 (Man6GlcNAc2) (db/db mice [1]; [3]) | Direction of change of high mannose glycan 720000 (Man7GlcNAc2) (db/db mice [1]; [3]) | Direction of change of high mannose glycan 820000 (Man8GlcNAc2) (db/db mice [1]; [3]) | Time until highly significant difference (p<0.001) was achieved for HbA1c (db/db mice [2]) [days]
insulin detemir | more subtle changes | lower in magnitude | no significant changes | no significant changes | no significant changes | significant decreases | significant decreases | significant decreases | Decreased | Decreased | Decreased | lower levels | lower levels | lower levels | lower levels | Decreased | Decreased | Decreased | Decreased | 
CN(CCOc1ccc(CC2SC(=O)NC2=O)cc1)c1ccccn1 (centres unmarked) [rosiglitazone] |  |  |  |  |  |  |  |  |  |  |  |  |  |  |  |  |  |  |  | 21
